# ChEMBL document CHEMBL1135278, “Thiophene derivatives: a new series of potent norepinephrine and serotonin reuptake inhibitors” (Bioorg Med Chem Lett, 2002)
# pKi: −log10 of the molar value.
# Experiments:
# [1] = molecular target: Norepinephrine transporter (Rattus norvegicus, UniProt Q9WTR4); assay: Inhibition of [3H]-NE reuptake at Norepinephrine transporter in rat parietal/occipital cortex
# [2] = molecular target: Sodium-dependent serotonin transporter (Rattus norvegicus, UniProt P31652); assay: Inhibition of [3H]5-HT reuptake at serotonin transporter in rat mid brain
# [3] = molecular target: Sodium-dependent dopamine transporter (Rattus norvegicus, UniProt P23977); assay: Inhibition of [3H]DA reuptake at dopamine transporter in rat striatum; type: tissue-based
# [4] = molecular target: Monoamine transporters; Norepinephrine & serotonin (Rattus norvegicus) (UniProt P31652+Q9WTR4); assay: Relative reuptake inhibition at norepinephrine and serotonin transporters; type: protein assay
# Chain of Norepinephrine transporter (Q9WTR4 whole entry): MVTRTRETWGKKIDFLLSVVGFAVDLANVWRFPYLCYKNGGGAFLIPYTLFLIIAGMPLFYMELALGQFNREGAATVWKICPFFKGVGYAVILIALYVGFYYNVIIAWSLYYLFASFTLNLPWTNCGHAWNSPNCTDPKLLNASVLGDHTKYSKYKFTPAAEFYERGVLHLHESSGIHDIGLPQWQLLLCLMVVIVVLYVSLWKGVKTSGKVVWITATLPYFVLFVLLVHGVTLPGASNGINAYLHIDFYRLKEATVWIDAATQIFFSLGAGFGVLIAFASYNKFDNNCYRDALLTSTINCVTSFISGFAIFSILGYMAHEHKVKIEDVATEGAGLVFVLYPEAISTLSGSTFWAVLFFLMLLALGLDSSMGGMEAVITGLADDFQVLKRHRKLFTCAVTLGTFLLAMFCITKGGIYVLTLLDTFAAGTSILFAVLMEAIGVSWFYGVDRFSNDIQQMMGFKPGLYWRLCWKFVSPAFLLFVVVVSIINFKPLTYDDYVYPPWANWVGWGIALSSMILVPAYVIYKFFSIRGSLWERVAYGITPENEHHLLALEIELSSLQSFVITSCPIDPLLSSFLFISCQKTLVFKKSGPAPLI
# Chain of Sodium-dependent serotonin transporter (P31652 whole entry): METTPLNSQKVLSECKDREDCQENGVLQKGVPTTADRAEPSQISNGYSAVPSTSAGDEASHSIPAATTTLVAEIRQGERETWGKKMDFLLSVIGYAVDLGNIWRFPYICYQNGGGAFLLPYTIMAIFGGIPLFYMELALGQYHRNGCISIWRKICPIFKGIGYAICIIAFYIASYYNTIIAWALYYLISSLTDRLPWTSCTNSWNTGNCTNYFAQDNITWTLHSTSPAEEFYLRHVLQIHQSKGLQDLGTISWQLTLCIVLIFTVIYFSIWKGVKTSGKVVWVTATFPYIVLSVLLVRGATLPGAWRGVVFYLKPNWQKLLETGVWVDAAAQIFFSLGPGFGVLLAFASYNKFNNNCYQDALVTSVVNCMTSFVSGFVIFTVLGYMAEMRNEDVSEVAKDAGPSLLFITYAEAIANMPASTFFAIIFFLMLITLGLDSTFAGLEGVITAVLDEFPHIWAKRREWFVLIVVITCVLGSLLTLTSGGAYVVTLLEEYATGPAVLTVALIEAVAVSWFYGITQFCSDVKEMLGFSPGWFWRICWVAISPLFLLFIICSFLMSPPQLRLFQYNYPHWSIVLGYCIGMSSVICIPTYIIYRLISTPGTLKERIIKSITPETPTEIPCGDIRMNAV
# Chain of Sodium-dependent dopamine transporter (P23977 whole entry): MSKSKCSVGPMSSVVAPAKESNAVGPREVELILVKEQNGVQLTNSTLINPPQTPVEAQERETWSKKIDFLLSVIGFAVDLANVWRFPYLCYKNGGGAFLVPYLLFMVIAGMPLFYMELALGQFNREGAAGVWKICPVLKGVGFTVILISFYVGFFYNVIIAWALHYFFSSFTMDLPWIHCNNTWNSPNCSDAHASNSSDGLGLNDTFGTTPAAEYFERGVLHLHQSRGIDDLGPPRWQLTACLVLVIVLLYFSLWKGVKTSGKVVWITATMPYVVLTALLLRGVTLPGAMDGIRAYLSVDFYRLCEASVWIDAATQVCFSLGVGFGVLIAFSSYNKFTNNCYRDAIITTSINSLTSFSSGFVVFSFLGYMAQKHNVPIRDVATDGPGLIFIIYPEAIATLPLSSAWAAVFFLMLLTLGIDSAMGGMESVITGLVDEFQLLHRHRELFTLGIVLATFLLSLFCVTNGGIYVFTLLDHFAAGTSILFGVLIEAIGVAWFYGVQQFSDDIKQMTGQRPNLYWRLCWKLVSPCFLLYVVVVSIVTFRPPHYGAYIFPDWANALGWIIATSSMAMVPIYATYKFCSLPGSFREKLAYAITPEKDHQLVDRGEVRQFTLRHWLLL
SMILES,pKi [1],pKi [2],pKi [3],Ratio [4]
O=C(OCC1C2CC3CCC1N3C/C2=C\c1cccs1)c1ccc2ccccc2c1 (stereo unspecified),5.91,6.77,5.78,
COC(=O)C1C2CC3CCC1N3C/C2=C\c1ccc(C)s1 (stereo unspecified),8.31,6.75,6.39,
CC(C)(C)C(=O)OCC1C2CC3CCC1N3C/C2=C\c1cccs1 (stereo unspecified),5.93,6.77,5.99,
CC(=O)NCC1C2CC3CCC1N3C/C2=C\c1cccs1 (stereo unspecified),5.61,4.88,5.21,
OCC1C2CC3CCC1N3C/C2=C\c1cccs1 (stereo unspecified),~6.52,~6.00,~5.52,0.3
CC(C)OC(=O)C1C2CC3CCC1N3C/C2=C\c1cccs1 (stereo unspecified),7.28,5.94,6.37,
O=C(OCC1C2CC3CCC1N3C/C2=C\c1ccc(I)c(Cl)c1)c1ccccc1 (stereo unspecified),,10.22,,
CC(C)(C)OC(=O)NCC1C2CC3CCC1N3C/C2=C\c1cccs1 (stereo unspecified),5.77,5.63,5.64,
COC(=O)C1C2CC3CCC1N3C/C2=C\c1cccs1 (stereo unspecified),7.58,5.69,6.57,
CC(=O)OCC1C2CC3CCC1N3C/C2=C\c1cccs1 (stereo unspecified),6.55,5.82,6.21,
COC(=O)C1C2CC3CCC1N3C/C2=C\c1ccc(I)s1 (stereo unspecified),8.30,7.54,6.43,
O=C(OCC1C2CC3CCC1N3C/C2=C\c1ccc(I)cc1)c1ccccc1 (stereo unspecified),,10.00,,
O=C(OCC1C2CC3CCC1N3C/C2=C\c1cccs1)c1ccccc1 (stereo unspecified),6.05,8.82,5.76,
